Reference: article PMC5469811, “Identification of GXXXXG motif in Chrysophsin-1 and its implication in the design of analogs with cell-selective antimicrobial and anti-endotoxin activities” (Scientific Reports, 2017)
≈ marks a conversion by molar mass, not a printed value. Residues, ends and D or L forms follow the SMILES beside them.

Columns and labels:
[1] = tested on: TNF-α in serum of BALB/c mice injected with E. coli ATCC 25922; experiment: In vivo TNF-α production after E. coli infection; conditions: BALB/c mice injected with mid-logarithmic phase E. coli ATCC 25922; two hours post infection; ELISA; versus untreated group
Description: Serum was isolated from the blood obtained by bleeding the mice retro-orbitally two hours post infection and ELISA was performed to determine the amount of TNF-α produced in the untreated group and the peptide-treated group.

[2] = tested on: Cryptococcus neoformans; experiment: microbe, parasite or virus in culture; assay type: cell-based; conditions: 72 h; read-out: Minimum inhibitory concentration (MIC)
Description: (§1) The anti- fungal activity of peptides was performed according to the standard micro broth dilution technique as per NCCLS guidelines. These plates were incubated in a moist chamber at 35 °C, and an absorbance at 492 nm was recorded on a VersaMax microplate reader after 48 h for C. albicans ATCC 10231 and C. parapsilosis ATCC 22019 and 72 h for C. neoformans.

[3] = tested on: Candida parapsilosis (ATCC 22019); experiment: microbe, parasite or virus in culture; assay type: cell-based; conditions: ATCC 22019, 48 h; read-out: Minimum inhibitory concentration (MIC)
Description: as §1

[4] = tested on: Candida albicans (ATCC 10231); experiment: microbe, parasite or virus in culture; assay type: cell-based; conditions: ATCC 10231, 48 h; read-out: Minimum inhibitory concentration (MIC)
Description: as §1

[5] = tested on: E. coli ATCC 25922; experiment: Synergy with conventional antibiotics, checkerboard titration; assay type: cell-based, Escherichia coli
How it was run: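 Checkerboard of 2-fold serial dilutions of peptide and antibiotic combined with log-phase bacteria, incubated 24 h at 37 °C. FIC index computed from combination versus single-agent MICs: <0.5 synergy, 0.5–1.0 additive, 1.0–4.0 indifferent, >4.0 antagonism.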

[6] = tested on: BALB/c mice; experiment: In vivo toxicity of peptide alone; design: species or system mouse; conditions: peptide alone 5 and 10 mgKg−1 i.p., seven days, five animals
Description: For survival assay, mice were challenged intraperitoneally with LPS at a lethal dose of 15 mgKg^−1 E. coli 0111:B4[5]. Control mice were injected with an equal volume of PBS. G13P-Chr-1 at a single dose of 5 mgKg^−1 was injected in the mice groups that were already administered with 15 mgKg^−1 of LPS. Each group contained five mice. The mortality of mice was monitored up to 7 days and weight change was monitored every day. The peptide G13P-Chr-1 only was also injected in two groups of mice at 5 mgKg^−1 and 10 mgKg^−1 to check any mortality in mice by peptide only treatment.

## CC[C@H](C)[C@H](NC(=O)[C@H](C)NC(=O)[C@H](CCCCN)NC(=O)[C@@H]1CCCN1C(=O)[C@H](C)NC(=O)[C@H](Cc1c[nH]cn1)NC(=O)[C@@H](NC(=O)[C@H](C)NC(=O)CNC(=O)[C@H](CCCCN)NC(=O)[C@@H](NC(=O)[C@H](CC(C)C)NC(=O)[C@H](Cc1c[nH]c2ccccc12)NC(=O)CNC(=O)[C@H](Cc1ccccc1)NC(=O)[C@@H](N)Cc1ccccc1)[C@@H](C)CC)[C@@H](C)CC)C(=O)N[C@@H](Cc1c[nH]cn1)C(=O)NCC(=O)N[C@@H](CC(C)C)C(=O)N[C@H](C(=O)N[C@@H](Cc1c[nH]cn1)C(=O)N[C@@H](CCCNC(=N)N)C(=O)N[C@@H](CCCNC(=N)N)C(=O)N[C@@H](CCCNC(=N)N)C(=O)N[C@@H](Cc1c[nH]cn1)C(N)=O)[C@@H](C)CC [Peptide G13P-Chr-1] (H-FFGWLIKGAIHAPKAIHGLIHRRRH-NH2)
[1]
  TNF-α production in serum: significant reduction
[2]
  MIC: 13.6 µM (≈ 39.9 µg/mL)
[3]
  MIC: 6.8 µM (≈ 19.9 µg/mL)
[4]
  MIC: 13.6 µM (≈ 39.9 µg/mL)
[5]
  interaction of peptide with chloramphenicol (by FICI): synergy (FICI < 0.5 is considered to indicate synergy)
[6]
  survival of mice (in vivo cytotoxicity): 100%
